These results are taken from publication PMC12235690 (Journal of Proteome Research, 2025).

Numbered stars: 1 amine (or outer) side, 2 acyl side, 3 side chain; on linkers, the order of the positions; unused ones are H or OH. Square brackets hold non-standard residues; d marks the D form. Side chains are listed from the residue outwards. Peptide text beside a SMILES is read from it. * marks the point of attachment. Biotin = O=C1N[C@H]2[C@H](CS[C@H]2CCCCC(=O)*)N1; γGlu = O=C(O)[C@H](CCC(=O)[*:2])N[*:1]; Palmitoyl = CCCCCCCCCCCCCCCC(=O)*; PhLac = O=C(O)[C@@H](O)Cc1ccccc1; PEG4 = NCCOCCOCCOCCOCCC(=O)O

Test [1] deals with T1, GCGR (Homo sapiens, UniProt P47871). Put plainly: GCGR cAMP accumulation, antagonist mode, native and biotinylated peptides. The format is cell-based. Conditions: HTRF, HEK Freestyle cells, arithmetic mean, n=3. Here is the method:
HEK Freestyle cells (ThermoFisher Scientific, #R79007) seeded in suspension at a density of 250,000 cells/mL were transiently transfected with indicated receptor constructs using Fugene-6 reagent (Promega, #E2691). After 48 h, cells were pelleted and resuspended in assay buffer (DMEM, #Gibco 31053) containing 0.1% casein. Cells were then added at 1000 cells/well to 384-well white microplates (Costar, #3570) containing a range of agonist concentrations prepared via acoustic direct dilution in assay buffer containing 250 μM IBMX (total reaction volume of 20 μL), followed by incubation at 37 °C for 30 min. Cells were then lysed via sequential addition of d2-labeled cAMP competitor conjugate and cryptate-conjugated detection antibody (Revity, #62AM4PEC), then incubated for 1 h at room temperature with subsequent quantification of time-resolved fluorescence resonance energy transfer using an Envision plate reader and calibration to external synthetic cAMP standards in a parallel processed plate. Normalized percent values were fit to the 4-parameter logistic model using GraphPad Prism 10.1.2.
Figure S1. Enrichment of GCGR using biotinylated peptide ligands and bottom-up proteomic analysis of C-tail phosphorylation. A-B) GCGR cAMP accumulation was measured in (A) agonist mode and (B) antagonist mode using native and biotinylated peptides. Summary statistics for pharmacological […]

The target in test [2] is T1, GCGR. The test can be described thus: GCGR cAMP accumulation, agonist mode, native and biotinylated peptides. The format is cell-based. Conditions: read-out: cAMP Emax Mean.
Method: Figure S1. […] A-B) GCGR cAMP accumulation was measured in (A) agonist mode and (B) antagonist mode using native and biotinylated peptides.
A further test deals with GLP-1R S442A (Homo sapiens, UniProt P43220, S442A). Put plainly: cell-based. Conditions: read-out: cAMP Emax Mean.
In a further test the target is GLP-1R_TEV_FLAG C-tail (Homo sapiens, UniProt P43220). Conditions: WT GLP-1R_TEV C-tail; 1 μM ligand, 10 min 37 °C, FreeStyle 293 cells, LC-PRM, relative to DMSO.
The target in test [3] is GLP-1R 3S→A (S442A/S444A/S445A) (Homo sapiens, UniProt P43220, S442A/S444A/S445A). Put plainly: cell-based. The conditions noted are these: read-out: cAMP Emax Mean.
The next test addresses GLP-1R S445A (Homo sapiens, UniProt P43220, S445A). The test can be described thus: cell-based. Conditions: read-out: cAMP Emax Mean. The method, then: (§1) Transfection for pharmacology experiments was conducted as previously described using FuGENE 6 (Promega, #E2691). […] Subsequently, 240 μL of room-temperature FuGENE 6 (Promega, #E2691) was added to the medium, mixed by inversion, and allowed to rest at room temperature for 5 min. 40 μg of the plasmid of interest was added to the FuGENE 6 containing medium, mixed by inversion, and allowed to rest at room temperature for 15–20 min.
(§2) HEK Freestyle cells (ThermoFisher Scientific, #R79007) seeded in suspension at a density of 250,000 cells/mL were transiently transfected with indicated receptor constructs using Fugene-6 reagent (Promega, #E2691). […] Cells were then lysed via sequential addition of d2-labeled cAMP competitor conjugate and cryptate-conjugated detection antibody (Revity, #62AM4PEC), then incubated for 1 h at room temperature with subsequent quantification of time-resolved fluorescence resonance energy transfer using an Envision plate reader and calibration to external synthetic cAMP standards in a parallel processed plate.

The next test addresses GLP-1R WT (Homo sapiens, UniProt P43220). Put plainly: cell-based. The conditions noted are these: read-out: cAMP Emax Mean. Here is the method: as §1, §2
For the next test, the target named is GLP-1R S444A (Homo sapiens, UniProt P43220, S444A). Put plainly: cell-based. The conditions noted are these: read-out: cAMP Emax Mean.
Chain of GLP-1R S444A (P43220 24-463 S444A): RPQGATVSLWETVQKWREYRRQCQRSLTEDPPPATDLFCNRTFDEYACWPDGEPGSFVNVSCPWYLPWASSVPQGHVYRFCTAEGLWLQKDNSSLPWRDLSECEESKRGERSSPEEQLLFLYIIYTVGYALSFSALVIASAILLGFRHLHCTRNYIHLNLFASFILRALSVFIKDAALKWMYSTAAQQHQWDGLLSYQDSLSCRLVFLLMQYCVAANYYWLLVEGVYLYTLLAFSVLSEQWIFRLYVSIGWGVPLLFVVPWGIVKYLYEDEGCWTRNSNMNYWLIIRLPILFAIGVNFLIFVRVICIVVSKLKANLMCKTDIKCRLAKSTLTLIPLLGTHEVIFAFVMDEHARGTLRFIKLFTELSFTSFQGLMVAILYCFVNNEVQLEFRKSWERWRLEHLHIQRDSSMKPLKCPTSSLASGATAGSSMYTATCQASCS

T1 sequence (P47871 26-477): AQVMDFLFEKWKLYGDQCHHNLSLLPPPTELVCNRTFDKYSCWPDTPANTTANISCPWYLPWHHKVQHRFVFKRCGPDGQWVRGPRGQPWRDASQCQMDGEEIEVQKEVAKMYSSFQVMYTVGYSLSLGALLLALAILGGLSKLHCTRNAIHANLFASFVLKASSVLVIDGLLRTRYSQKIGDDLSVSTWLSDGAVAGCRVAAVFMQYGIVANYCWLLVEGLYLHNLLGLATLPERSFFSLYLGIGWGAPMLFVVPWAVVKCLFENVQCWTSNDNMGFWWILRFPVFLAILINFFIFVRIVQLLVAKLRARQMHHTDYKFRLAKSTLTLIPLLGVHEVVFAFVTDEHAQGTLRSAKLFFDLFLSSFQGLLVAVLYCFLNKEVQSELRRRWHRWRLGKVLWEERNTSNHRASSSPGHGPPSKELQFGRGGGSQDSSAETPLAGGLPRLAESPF
Chain of GLP-1R_TEV_FLAG C-tail (P43220 24-431 limits assumed): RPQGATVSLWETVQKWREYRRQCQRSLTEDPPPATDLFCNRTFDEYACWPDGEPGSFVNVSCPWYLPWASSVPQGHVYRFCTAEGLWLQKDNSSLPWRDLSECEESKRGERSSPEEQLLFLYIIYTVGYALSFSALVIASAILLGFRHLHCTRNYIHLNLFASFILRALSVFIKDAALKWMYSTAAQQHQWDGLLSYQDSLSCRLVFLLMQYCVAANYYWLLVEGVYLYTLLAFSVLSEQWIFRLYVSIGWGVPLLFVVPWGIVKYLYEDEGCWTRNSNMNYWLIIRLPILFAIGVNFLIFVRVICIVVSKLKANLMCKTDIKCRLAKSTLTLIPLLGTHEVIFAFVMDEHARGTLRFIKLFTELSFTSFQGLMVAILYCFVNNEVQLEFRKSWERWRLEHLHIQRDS
Chain of GLP-1R S445A (P43220 24-463 S445A): as the sequence (P43220 24-463 S444A) above, with A421S, S422A counted along it
Chain of GLP-1R 3S→A (S442A/S444A/S445A) (P43220 24-463 S442A/S444A/S445A): as the sequence (P43220 24-463 S444A) above, with S419A, S422A counted along it
Chain of GLP-1R S442A (P43220 24-463 S442A): as the sequence (P43220 24-463 S444A) above, with S419A, A421S counted along it
Chain of GLP-1R WT (P43220 24-463): as the sequence (P43220 24-463 S444A) above, with A421S counted along it

What is called Emax is the size of the effect at its maximum, as opposed to the concentration needed. With `CSCC[C@H](NC(=O)[C@H](CC(C)C)NC(=O)[C@H](Cc1c[nH]c2ccccc12)NC(=O)[C@H](CCC(N)=O)NC(=O)[C@@H](NC(=O)[C@H](Cc1ccccc1)NC(=O)[C@H](CC(=O)O)NC(=O)[C@H](CCC(N)=O)NC(=O)[C@H](C)NC(=O)[C@H](CCCNC(=N)N)NC(=O)[C@H](CCCNC(=N)N)NC(=O)[C@H](CO)NC(=O)[C@H](CC(=O)O)NC(=O)[C@H](CC(C)C)NC(=O)[C@H](Cc1ccc(O)cc1)NC(=O)[C@H](CCCCN)NC(=O)[C@H](CO)NC(=O)[C@H](CCCCNC(=O)CCOCCOCCOCCOCCNC(=O)CCCC[C@@H]1SC[C@@H]2NC(=O)N[C@@H]21)NC(=O)[C@H](CC(=O)O)NC(=O)[C@H](CO)NC(=O)[C@@H](NC(=O)[C@@H](O)Cc1ccccc1)[C@@H](C)O)C(C)C)C(=O)N[C@@H](CC(=O)O)C(=O)N[C@H](C(N)=O)[C@@H](C)O` [Biotin-GCGR antagonist] (H-[PhLac]TSDK([PEG4-Biotin])SKYLDSRRAQDFVQWLMDT-NH2), the Emax on GCGR [1] was determined as 120%.
With `CC[C@H](C)[C@H](NC(=O)[C@H](Cc1ccccc1)NC(=O)[C@@H](NC(=O)CNC(=O)[C@H](CCC(N)=O)NC(=O)C(C)(C)NC(=O)[C@@H](N)Cc1c[nH]cn1)[C@@H](C)O)C(=O)N[C@@H](CO)C(=O)N[C@@H](CC(=O)O)C(=O)N[C@@H](CCCCNC(=O)CCOCCOCCOCCOCCNC(=O)CCCC[C@@H]1SC[C@@H]2NC(=O)N[C@@H]21)C(=O)N[C@@H](CO)C(=O)N[C@@H](CCCCN)C(=O)N[C@@H](Cc1ccc(O)cc1)C(=O)N[C@@H](CC(C)C)C(=O)N[C@@H](CC(=O)O)C(=O)NC(C)(C)C(=O)N[C@@H](CCCNC(=N)N)C(=O)N[C@@H](C)C(=O)N[C@@H](C)C(=O)N[C@@H](CCC(N)=O)C(=O)N[C@@H](CC(=O)O)C(=O)N[C@@H](Cc1ccccc1)C(=O)N[C@H](C(=O)N[C@@H](CCC(N)=O)C(=O)N[C@@H](Cc1c[nH]c2ccccc12)C(=O)N[C@@H](CC(C)C)C(=O)N[C@@H](CCSC)C(=O)N[C@@H](CC(=O)O)C(=O)N[C@H](C(=O)O)[C@@H](C)O)C(C)C` [Biotin-GCG], at GCGR [2], the Emax came to 124%.
In turn, `CCCCCCCCCCCCCCCC(=O)N[C@@H](CCC(=O)N[C@@H](CCC(=O)NCCCC[C@H](NC(=O)[C@H](CC(=O)O)NC(=O)[C@H](CO)NC(=O)[C@@H](NC(=O)[C@@H](O)Cc1ccccc1)[C@@H](C)O)C(=O)N[C@@H](CO)C(=O)N[C@@H](CCCCN)C(=O)N[C@@H](Cc1ccc(O)cc1)C(=O)N[C@@H](CC(C)C)C(=O)N[C@@H](CC(=O)O)C(=O)N[C@@H](CO)C(=O)N[C@@H](CCCNC(=N)N)C(=O)N[C@@H](CCCNC(=N)N)C(=O)N[C@@H](C)C(=O)N[C@@H](CCC(N)=O)C(=O)N[C@@H](CC(=O)O)C(=O)N[C@@H](Cc1ccccc1)C(=O)N[C@H](C(=O)N[C@@H](CCC(N)=O)C(=O)N[C@@H](Cc1c[nH]c2ccccc12)C(=O)N[C@@H](CC(C)C)C(=O)N[C@@H](CCSC)C(=O)N[C@@H](CC(=O)O)C(=O)N[C@H](C(N)=O)[C@@H](C)O)C(C)C)C(=O)O)C(=O)O` [GCGR Antagonist] (H-[PhLac]TSDK([γGlu-γGlu-Palmitoyl])SKYLDSRRAQDFVQWLMDT-NH2) came in with an Emax on GCGR [1] of 116%.
For the compound `N#Cc1ccc(COc2cccc(C3CCN(Cc4nc5ccc(C(=O)O)cc5n4C[C@@H]4CCO4)CC3)n2)c(F)c1` [danuglipron], the Emax is 116% at GLP-1R S442A; 130% in test [3]; 123% at GLP-1R S445A; 99% on GLP-1R WT; 127% on GLP-1R S444A. Besides, the “increase in the percentage of phosphorylated GLP-1R proteoforms” value on GLP-1R_TEV_FLAG C-tail is listed as 14.5%.
